Laboratory results: ChEMBL document CHEMBL1157827, “The synthesis and biological evaluation of quinolyl-piperazinyl piperidines as potent serotonin 5-HT1A antagonists” (J Med Chem, 2010)
The source made the active and inactive calls. The rule behind the calls is not given here.

Assays:
[1] = in vitro; conditions: human, liver microsomes
Description: Half life in human liver microsomes at 1 uM after 20 mins

[2] = biological target: T1, 5-hydroxytryptamine receptor 1A (Homo sapiens, UniProt P08908)
T1 sequence (P08908 whole entry): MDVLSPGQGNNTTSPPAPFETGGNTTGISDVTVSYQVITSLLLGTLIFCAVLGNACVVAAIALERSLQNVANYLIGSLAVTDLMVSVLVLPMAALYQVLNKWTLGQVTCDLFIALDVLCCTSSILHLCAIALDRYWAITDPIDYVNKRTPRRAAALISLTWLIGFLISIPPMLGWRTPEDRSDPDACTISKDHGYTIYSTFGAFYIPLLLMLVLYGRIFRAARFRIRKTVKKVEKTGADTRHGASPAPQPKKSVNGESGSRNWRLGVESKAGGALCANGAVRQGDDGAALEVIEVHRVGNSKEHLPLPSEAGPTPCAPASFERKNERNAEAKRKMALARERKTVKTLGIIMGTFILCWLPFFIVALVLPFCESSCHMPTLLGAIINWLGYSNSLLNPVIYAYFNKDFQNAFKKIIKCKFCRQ

[3] = in vitro; conditions: rat, liver microsomes
Description: Half life in rat liver microsomes at 1 uM after 20 mins

[4] = biological target: T1, 5-hydroxytryptamine receptor 1A; assay: biochemical
Description: Displacement of [3H]8-OH-DPAT from human 5HT1A receptor expressed in CHO cells

[5] = test system: Rattus norvegicus; assay: Inhibition of 8-OH-DPAT-induced decrease in extracellular serotonin level Sprague-Dawley rat cortex at 10 mg/kg, po administered 30 mins before 8-OH-DPAT challenge; assay type: functional, organism-based; parameters: dose 10 mg/kg
[6] = Volume of distribution at steady state in Sprague-Dawley rat at 1 mg/kg, iv administered as single dose by LC/MS/MS analysis; assay type: ADME, organism-based; parameters: dose 1 mg/kg, route intravenous; conditions: in vivo, read-out: Vdss
[7] = Oral bioavailability in Sprague-Dawley rat at 3 mg/kg administered as single dose by LC/MS/MS analysis; assay type: ADME, organism-based; conditions: Sprague-Dawley, in vivo
[8] = Clearance in Sprague-Dawley rat at 1 mg/kg, iv administered as single dose by LC/MS/MS analysis; assay type: ADME, organism-based; parameters: dose 1 mg/kg, route intravenous; conditions: in vivo
[9] = AUC in Sprague-Dawley rat at 3 mg/kg, po administered as single dose by LC/MS/MS analysis; assay type: ADME, organism-based, Plasma; parameters: dose 3 mg/kg, route oral; conditions: Sprague-Dawley, plasma
[10] = Cmax in Sprague-Dawley rat at 3 mg/kg, po administered as single dose by LC/MS/MS analysis; assay type: ADME, organism-based; parameters: dose 3 mg/kg, route oral; conditions: in vivo
[11] = Ratio of drug level in brain to plasma in Sprague-Dawley rat at 3 mg/kg, po administered as single dose; assay type: ADME, organism-based; parameters: dose 3 mg/kg, route oral; conditions: read-out: BPR
[12] = Tmax in Sprague-Dawley rat at 3 mg/kg, po administered as single dose by LC/MS/MS analysis; assay type: ADME, organism-based; parameters: dose 3 mg/kg, route oral; conditions: in vivo
[13] = test system: Rattus norvegicus; assay: Effect on serotonin release in Sprague-Dawley rat cortex at 10 mg/kg, po after 40 mins microdialysis assay; assay type: functional, organism-based; parameters: dose 10 mg/kg
[14] = Half life in Sprague-Dawley rat at 3 mg/kg, po administered as single dose by LC/MS/MS analysis; assay type: ADME, organism-based; parameters: dose 3 mg/kg, route oral; conditions: in vivo

Row | Compound | half-life at 20 min, 1 µM [1] | IC50 [2] | half-life at 20 min, 1 µM [3] | Ki [4] | other results
1 | COc1cc(N2CCN(C3CCN(c4cc(F)cc5cccnc45)CC3)CC2)c2ncccc2c1 | 4 min | 46.5 nM | 2 min | 3.4 nM | 
2 | COc1cc(N2CCN(C3CCN(c4c(F)ccc5cccnc45)CC3)CC2)c2ncccc2c1 | 3 min | 331 nM | 3 min | 276 nM | 
3 | COc1cc(N2CCN(C3CCN(c4cccc5ccc(C)nc45)CC3)CC2)c2ncccc2c1 | 3 min | 47 nM | < 1 min | 0.54 nM | 
4 | COc1cc(N2CCN(C3CCN(c4ccc(F)c5c(OC)cc(C(F)(F)F)nc45)CC3)CC2)c2ncccc2c1 | 15 min |  | 12 min |  | Activity [5]: Active; Vd [6]: 2.5 L/kg; bioavailability [7]: 60%; clearance [8]: 9 mL/min/kg; AUC [9]: 3760 ng·h/mL; Cmax [10]: 417 ng/mL; Kp [11]: 0.2; Tmax [12]: 120 min; Activity [13]: inactive; half-life [14]: 288 min

More lines, in order of falling IC50 [2], values ahead:

Row | half-life at 20 min, 1 µM [1] | IC50 [2] | half-life at 20 min, 1 µM [3] | Ki [4] | Compound | other results
5 | 3 min | 7 nM | 3 min | 3.6 nM | COc1cc(N2CCN(C3CCN(c4ccc(F)c5ccc(C(F)(F)F)nc45)CC3)CC2)c2ncccc2c1 | 
6 | 2 min | 5.9 nM | 2 min | 0.46 nM | COc1cc(N2CCN(C3CCN(c4cccc5cc(C)cnc45)CC3)CC2)c2ncccc2c1 | 
7 | 2 min | 5.6 nM | 2 min | 0.79 nM | COc1cc(N2CCN(C3CCN(c4cccc5cc(F)cnc45)CC3)CC2)c2ncccc2c1 | 
8 | 3 min | 2.8 nM | 3 min | 177 nM | COc1cc(N2CCN(C3CCN(c4ccc(F)c5c(C)cc(C)nc45)CC3)CC2)c2ncccc2c1 | 
9 | 2 min | 1.4 nM | 2 min | 0.61 nM | COc1cc(N2CCN(C3CCN(c4cccc5c(C)ccnc45)CC3)CC2)c2ncccc2c1 | 
